In ChEMBL document CHEMBL3632532, “Beyond the affinity for protein kinase C: exploring 2-phenyl-3-hydroxypropyl pivalate analogues as C1 domain-targeting ligands” (Medchemcomm, 2015):

Columns and labels:
[1] = molecular target: T1, Protein kinase C alpha type (Homo sapiens, UniProt P17252); experiment: Displacement of [3H]PDBu from recombinant human PKCalpha C1 domain expressed in baculovirus infected insect Sf9 cells assessed as residual radiolabeled binding at 100 uM after 10 mins by liquid scintillation counting analysis relative to control
[2] = molecular target: T2, Protein kinase C delta type (Homo sapiens, UniProt Q05655); experiment: Displacement of [3H]PDBu from recombinant human PKCdelta C1 domain expressed in baculovirus infected insect Sf9 cells at 100 uM after 10 mins by liquid scintillation counting analysis relative to control
Target sequence in this assay (Q05655 whole entry, looked up, the tested form may be a part): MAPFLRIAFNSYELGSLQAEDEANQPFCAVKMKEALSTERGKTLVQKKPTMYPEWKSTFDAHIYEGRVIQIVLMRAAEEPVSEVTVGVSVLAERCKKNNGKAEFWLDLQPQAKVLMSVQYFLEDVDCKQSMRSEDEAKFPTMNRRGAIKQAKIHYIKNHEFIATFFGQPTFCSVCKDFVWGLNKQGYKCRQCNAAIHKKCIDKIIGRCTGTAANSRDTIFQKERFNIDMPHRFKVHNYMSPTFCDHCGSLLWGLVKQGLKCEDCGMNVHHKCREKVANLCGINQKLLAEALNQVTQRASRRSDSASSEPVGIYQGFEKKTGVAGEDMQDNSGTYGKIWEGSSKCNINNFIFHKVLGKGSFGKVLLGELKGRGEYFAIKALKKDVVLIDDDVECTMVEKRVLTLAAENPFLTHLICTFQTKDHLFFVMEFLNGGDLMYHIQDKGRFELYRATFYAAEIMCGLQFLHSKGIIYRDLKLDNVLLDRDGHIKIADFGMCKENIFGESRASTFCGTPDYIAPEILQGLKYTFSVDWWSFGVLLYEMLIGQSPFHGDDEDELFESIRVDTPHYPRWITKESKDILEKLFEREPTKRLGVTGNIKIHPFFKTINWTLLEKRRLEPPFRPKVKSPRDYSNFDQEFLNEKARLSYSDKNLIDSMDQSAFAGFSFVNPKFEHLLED

[3] = molecular target: T1, Protein kinase C alpha type; experiment: Displacement of [3H]PDBu from recombinant human PKCalpha C1 domain expressed in baculovirus infected insect Sf9 cells at 100 uM after 10 mins by liquid scintillation counting analysis relative to control
[4] = molecular target: T2, Protein kinase C delta type; experiment: Displacement of [3H]PDBu from recombinant human PKCdelta C1 domain expressed in baculovirus infected insect Sf9 cells after 10 mins by liquid scintillation counting analysis
[5] = molecular target: T1, Protein kinase C alpha type; experiment: Displacement of [3H]PDBu from recombinant human PKCalpha C1 domain expressed in baculovirus infected insect Sf9 cells after 10 mins by liquid scintillation counting analysis
[6] = molecular target: T2, Protein kinase C delta type; experiment: Displacement of [3H]PDBu from recombinant human PKCdelta C1 domain expressed in baculovirus infected insect Sf9 cells assessed as residual radiolabeled binding at 100 uM after 10 mins by liquid scintillation counting analysis relative to control
Target sequence in this assay (Q05655 whole entry, looked up, the tested form may be a part): as the sequence (Q05655 whole entry, looked up, the tested form may be a part) above

`CN(Cc1ccccc1)C(=O)CC(CO)c1cccc(OCc2ccccc2)c1` (stereo not drawn) showed an Activity [1] of 72.4%.

With `CCN(CC)C(=O)CC(CO)c1ccc(-c2ccccc2)cc1` (stereo not drawn) the Activity [1] was 84.4%.

For `O=C(CC(CO)c1cccc(OCc2ccccc2)c1)N1CCOCC1` (stereo not drawn), the Activity [1] was 99.7%.

In the case of `O=C(CC(CO)c1ccc(OCc2ccccc2)cc1)N1CCOCC1` (stereo not drawn), the Activity [1] is reported as 107%.

Compound `CN(Cc1ccccc1)C(=O)CC(CO)c1ccc(-c2ccccc2)cc1` (stereo not drawn) has an Activity [1] of 76.1%.

`CC(C)(C)C(=O)OCC(CO)c1ccc(OCc2ccccc2)cc1` (single isomer, unassigned; (+)) gave an inhibition [2] of 34.6% and an inhibition [3] of 34.6%.

`CCN(CC)C(=O)CC(CO)c1cccc(OCc2ccccc2)c1` (stereo not drawn) gave an Activity [1] of 90%.

In the case of `CN(Cc1ccccc1)C(=O)CC(CO)c1ccc(OCc2ccccc2)cc1` (stereo not drawn), the Activity [1] is reported as 80.6%.

In the case of `O=C(CC(CO)c1ccc(-c2ccccc2)cc1)OCc1ccccc1` (stereo not drawn), the inhibition [4] is reported as “Dose-dependent effect”, the inhibition [5] is reported as “Dose-dependent effect” and the Residual [3H]PDBu binding [6] is reported as 56.7%. For the same compound, the Activity [1] was 64.4%.

`CC(C)(C)C(=O)OCC(CO)c1ccc(OCc2ccccc2)cc1` (single isomer, unassigned) gave an inhibition [2] of 36.3% and an inhibition [3] of 36.3%.

Work on `O=C(Cc1ccccc1)OCC(CO)c1ccc(OCc2ccccc2)cc1` (racemic) [listing 1 of 2 here] yielded an IC50 [4] of 39.9 µM and an IC50 [5] of 73.9 µM.

In the case of `CCN(CC)C(=O)CC(CO)c1ccc(OCc2ccccc2)cc1` (stereo not drawn), the Activity [1] is reported as 100%.

Compound `O=C(CC(CO)c1ccc(-c2ccccc2)cc1)N1CCOCC1` (stereo not drawn) has an Activity [1] of 86.6%.

For `O=C(CC(CO)c1ccc(OCc2ccccc2)cc1)OCc1ccccc1` (stereo not drawn), the inhibition [4] was “Dose-dependent effect”, the inhibition [5] was “Dose-dependent effect” and the Residual [3H]PDBu binding [6] was 61.6%. The Activity [1] was 73.9%.

For `O=C(CC(CO)c1cccc(OCc2ccccc2)c1)OCc1ccccc1` (stereo not drawn), the inhibition [4] was “Dose-dependent effect”, the inhibition [5] was “Dose-dependent effect” and the Residual [3H]PDBu binding [6] was 52.5%. For the same compound, the Activity [1] was 67.4%.

Work on `CC(C)(C)C(=O)OCC(CO)c1ccc(OCc2ccccc2)cc1` (racemic) [listing 1 of 2 here] yielded a Residual [3H]PDBu binding [6] of 29.3% and an Activity [1] of 41.6%.

`O=C(Cc1ccccc1)OCC(CO)c1ccc(OCc2ccccc2)cc1` (single isomer, unassigned) gave an inhibition [2] of 27.3% and an inhibition [3] of 27.3%.

For `O=C(Cc1ccccc1)OCC(CO)c1ccc(OCc2ccccc2)cc1` (racemic) [listing 2 of 2 here], the inhibition [5] was “Dose-dependent effect”, the Residual [3H]PDBu binding [6] was 34.8% and the Activity [1] was 51.3%.

`CC(C)(C)C(=O)OCC(CO)c1ccc(OCc2ccccc2)cc1` (racemic) [listing 2 of 2 here] showed an IC50 [4] of 33.2 µM and an IC50 [5] of 37.5 µM.

With `O=C(Cc1ccccc1)OCC(CO)c1ccc(OCc2ccccc2)cc1` (single isomer, unassigned; (-)) the inhibition [2] was 26.3% and the inhibition [3] was 26.3%.
